In US9966622B2, “Small organic molecule based flow battery” (President and Fellows of Harvard College, priority 2012, dated 2018):
≈ marks a conversion by molar mass, not a printed value. Where “and” joins values, the source holds several entries; their conditions need not be identical. Equal values may be shown once. Read-outs that look alike come from different tables or passages of the source.

What was measured:
[1] = Half-cell cyclic voltammetry of quinones, E^0 (Example 13); format: physicochemical; conditions: 1 mM in 1 M sulfuric acid, pH 0, glassy carbon, 25 mV/s
Procedure: 1 mM solutions of the quinones listed in the following table were prepared in 1 M sulfuric acid solution. The pH of the solutions was 0. Half-cell electrochemical data were recorded using a working electrode consisting of a flat 3 mm diameter disk of glassy carbon, a coiled platinum wire as a counter electrode, and a Ag/AgCl reference electrode. Cyclic voltammograms were recorded using sweep rates of 25 mV/s.

[2] = Cyclic voltammetry of AQDS on glassy carbon (Example 3); format: physicochemical; conditions: 1 mM in 1 M sulfuric acid, glassy carbon disc
Text: AQDS was subjected to half-cell electrochemical measurements. […] The peak separation of 34 mV was close to the 59 mV/n, where n was the number of electrons involved, expected for a two-electron process.

[3] = Rotating disk electrode measurements of AQDS (Example 4); format: physicochemical
Procedure: FIG. 5B is a graph of rotating disk electrode measurements using a glassy carbon electrode in 1 M H2SO4 at eleven rotation rates ranging from 200 (red) to 3600 rpm (dk. green).
FIG. 6 is a Levich plot (current vs. rotation rate) of 1 mM AQDS in 1 M H2SO4. Best fit line has a slope of 0.453(2) μA s^1/2 rad^−1/2.
FIG. 7 is a Koutecký-Levich plot (current^−1 vs. rotation rate^−1/2).
FIG. 8 is a Tafel plot (overpotential vs. log(current)) constructed using the current response in the absence of mass-transport at low overpotentials, extrapolated from the zero-intercept of FIG. 7 (infinite rotation rate). Best fit line is the function y=62(x+4.32). This yields α=0.474(2) and k0=7.2(5)×10^−3 cm s^−1.
The glassy carbon disk in Example 3 was rotated at a variety of rates yields mass-transport limited currents from which the AQDS diffusion coefficient (D=3.8(1)×10^−6 cm^2 s^−1)(compare D in [38]) and kinetic reduction rate constant could be determined (FIGS. 5B, 6, 7, and 8). […] This rate constant was faster than that found for many other species used in flow cells such as V^3+/V^2+, Br2/Br^−, and S4^2−/S2^2− (see Table 2 in [40]). The electrochemical reversibility of the two-electron redox reaction was confirmed by the slope of the Tafel plot (FIG. 8), which gave the transfer coefficient α=0.474, which is close to the value of 0.5 expected for an ideally reversible reaction.

[4] = Pourbaix diagram of AQDS redox couple vs. pH (Example 5); format: physicochemical
Procedure: FIG. 5C is a Pourbaix diagram of AQDS. Solid lines indicate slopes of −59 mV/pH, −30 mV/pH, and 0 mV/pH, corresponding to two-, one-, and zero-proton processes respectively. Dashed lines linearly extrapolate the one- and zero-proton processes to give E^0 values of 18 mV (2 e^−/1 H^+) and −296 mV (2 e^−/0 H^+).
To further understand the AQDS redox behavior, we generated a Pourbaix diagram (FIG. 5C) of the equilibrium potential of the AQDS redox couple vs. pH. Aqueous 1 mM solutions of AQDS disodium salt were prepared and pH buffered using the following chemicals: sulfuric acid (1 M, pH 0), HSO4^−/SO4^2− (0.1 M, pH 1-2), AcOH/AcO^− (0.1 M, pH 2.65-5), H2PO4^−/HPO4^2− (0.1 M, pH 5.3-8), HPO4^2−/PO4^3− (0.1 M, pH 9.28-11.52), and KOH (0.1 M, pH 13). The pH of each solution was adjusted with 1 M H2SO4 or 0.1 M KOH solutions. […] In more basic conditions (7<pH<11), a two-electron, one-proton process occurred, giving a 30 mV/pH slope. The potential became pH-independent at values greater than 11, which indicated a two-electron, zero-proton process.

Aqueous solubility = format: physicochemical; conditions: pH 0, aqueous buffer
[5] = Stability of AQDS to Br2 / HBr by NMR (Example 12); format: physicochemical; conditions: for stability to 2 M / concentrated HBr and Br2: heated to 100° C. for 48 h (two days)
Procedure: 50 mg of 9,10-anthraquinone-2,7-disulfonic acid was dissolved in 0.4 mL of D2O was treated with 100 μL of Br2. The ^1H and ^13C NMR spectra (FIGS. 17A-B and 18A-B) were unchanged from the starting material after standing for 20 hours at 25° C. 50 mg of AQDS was then treated with 1 mL of concentrated HBr and 100 μL of Br2. The reaction was heated to 100° C. for 48 h and evaporated to dryness at that temperature. The resulting solid was fully dissolved in D2O giving unchanged and ^1H and ^13C NMR (FIGS. 17C and 18C); however, the ^1H NMR reference was shifted due to residual acid.

[6] = Half-cell cyclic voltammetry compared with AQDS (Examples 6 and 7); format: physicochemical; conditions: 1 mM in 1 M H2SO4; listed as 1,8-(OH)2-AQDS
[7] = cited from earlier work
[8] = Stability of quinone form in aqueous solution, cyclic voltammetry of catechol (Example 1); format: physicochemical; conditions: 1 N H2SO4
Text: 1 molal 1,2-ortho-benzohydroquinone (catechol) was oxidized in 1 N H2SO4 at a flat Pt electrode, obtaining the cyclic voltammetry curves shown in FIG. 3A. The sweep starts at (0.2 V, 0 mA/cm^2) and proceeds at 25 mV/s to the right. At about 600 mV vs. Ag/AgCl (the known E^0 is 795 mV vs. SHE), the current density increases as catechol is oxidized to the orthoquinone form. The oxidative current density peaks at about 150 mA/cm^2. The peak and downturn are caused by reactant depletion in a quiescent (non-flowing, non-stirred) electrolyte. In a test at a higher concentration of 3.9 molal (FIG. 3B), we observe asymmetric oxidation and reduction peaks, achieving current densities above 500 mA/cm^2 for the former. The asymmetric shape of the curve in FIG. 3B arises because the quinone form is unstable in aqueous solution. In addition the limited solubility of ortho-benzoquinone (0.06 M) compared to its reduced form precludes symmetric behavior at high concentration.

[9] = aqueous, no source given; cited from earlier work

| Compound | Standard Reduction Potential E^0 in Volts vs. the standard hydrogen electrode (SHE) [1] [Volts] | also measured |
| --- | --- | --- |
| 2-bromo-1,4-naphthoquinone-3-sulfonic acid [Entry 14] | 0.371 | – |
| O=C1c2ccc(S(=O)(=O)O)cc2C(=O)c2cc(S(=O)(=O)O)ccc21 [Entry 1, 9,10-anthraquinone-2,7-disulfonic acid] | 0.213 | peak separation (cyclic voltammetry) [2]: 34 mV; diffusion coefficient D ([3]; 1 mM in 1 M H2SO4, rotating glassy carbon disk): 3.8(1)×10^−6 cm^2 s^−1; kinetic reduction rate constant k0 ([3]; reduction on glassy carbon, 1 M H2SO4): 7.2(5)×10^−3 cm s^−1; E^0 (2 e^−/1 H^+), extrapolated ([4]; linear extrapolation of one-proton process): 18 mV; E^0 (2 e^−/0 H^+), extrapolated ([4]; linear extrapolation of zero-proton process): −296 mV; solubility (Aqueous solubility): ~1000 mM (≈ 368 mg/mL); stability to 2 M / concentrated HBr and Br2 [5]: no reaction; stability to 2 M / concentrated HBr and Br2 ([5]; listed as 9,10-anthraquinone-2,7-disulfonate): stable; stability to Br2 (1H and 13C NMR spectra) ([5]; in D2O, 20 hours at 25° C.): unchanged |
| O=C1c2ccc(S(=O)(=O)O)cc2C(=O)c2ccc(S(=O)(=O)O)cc21 [Entry 2, 9,10-anthraquinone-2,6-disulfonic acid] | 0.212 | – |
| O=C1c2cccc(S(=O)(=O)O)c2C(=O)c2c1cccc2S(=O)(=O)O [Entry 3, 9,10-anthraquinone-1,8-disulfonic acid] | 0.182 | – |
| O=C1c2cccc(S(=O)(=O)O)c2C(=O)c2cccc(S(=O)(=O)O)c21 [Entry 4, 9,10-anthraquinone-1,5-disulfonic acid] | 0.223 | – |
| O=C1c2ccccc2C(=O)c2cc(S(=O)(=O)O)ccc21 [Entry 5, 9,10-anthraquinone-2-sulfonic acid] | 0.171 | – |
| O=C1c2ccccc2C(=O)c2cc(CS(=O)(=O)O)c(CS(=O)(=O)O)cc21 [Entry 6, 9,10-anthraquinone-2,3-dimethanesulfonic acid] | 0.114 | – |
| O=C1c2ccc(S(=O)(=O)O)c(O)c2C(=O)c2c1ccc(S(=O)(=O)O)c2O [Entry 7, 1,8-dihydroxy-9,10-anthraquinone-2,7-disulfonic acid] | 0.118 | lowering of reduction potential relative to AQDS [6]: ~100 mV and 95 mV |
| O=C1c2ccc(S(=O)(=O)O)c(O)c2C(=O)c2ccc(S(=O)(=O)O)c(O)c21 [Entry 8, 1,5-dihydroxy-9,10-anthraquinone-2,6-disulfonic acid] | 0.116 | – |
| O=C1c2ccccc2C(=O)c2c(O)c(S(=O)(=O)O)cc(O)c21 [Entry 9, 1,4-dihydroxy-9,10-anthraquinone-2-sulfonic acid] | 0.094 | – |
| O=C1c2ccccc2C(=O)c2c(O)c(S(=O)(=O)O)c(O)c(O)c21 [Entry 10, 1,3,4-trihydroxy-9,10-anthraquinone-2-sulfonic acid] | 0.088 | – |
| O=C1C=C(S(=O)(=O)O)c2ccccc2C1=O [Entry 11, 1,2-naphthoquinone-4-sulfonic acid] | 0.423 | – |
| O=C1C=C(S(=O)(=O)O)C(=O)c2ccccc21 [Entry 12, 1,4-naphthoquinone-2-sulfonic acid] | 0.356 | – |
| O=C1C(Cl)=C(S(=O)(=O)O)C(=O)c2ccccc21 [Entry 13, 2-chloro-1,4-naphthoquinone-3-sulfonic acid] | 0.368 | – |
| Oc1ccccc1O [catechol, 1,2-ortho-benzohydroquinone] | – | known E^0 ([7]; vs. SHE): 795 mV |
| O=C1C=CC=CC1=O [ortho-benzoquinone] | – | stability in aqueous solution [8]: unstable; solubility [9]: 60 mM (≈ 6.49 mg/mL) |
| CC1=C(C)C(=O)C(C)=C(C)C1=O [tetramethylbenzoquinone] | – | redox potential ([7]; aqueous, literature values [28], [29]): 0.040 V and 0.068 V |
